Data published in PMC3480714 (Nature chemical biology, 2012).

Target: T1, CobL (Rhodobacter capsulatus, UniProt D5AV04)
T1 sequence (D5AV04 214-396): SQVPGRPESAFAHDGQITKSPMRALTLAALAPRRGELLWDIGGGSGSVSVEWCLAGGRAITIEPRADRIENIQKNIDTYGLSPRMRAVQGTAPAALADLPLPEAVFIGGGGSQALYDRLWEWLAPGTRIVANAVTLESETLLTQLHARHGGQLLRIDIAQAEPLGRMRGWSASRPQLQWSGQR
Assay: X-ray crystal structure at […] Å
Type: binding

Nc1ncnc2c1ncn2[C@@H]1O[C@H](CSCC[C@H](N)C(=O)O)[C@@H](O)[C@H]1O [SAH]
X-ray crystal structure at 2.7 Å: The SAM binding site of the CobL^C subunit showing SAH bound at the C-terminal end of the Rossmann-like
